{"source": "patent US10835519B2", "about": "“Targeting metabolic adaptive responses to chemotherapy” (University of Cincinnati, priority 2012, dated 2020)", "key": {"BCR-ABL+ FL5.12 cells [1]": {"tested_on": "BCR-ABL+ FL5.12 cells", "test": "Viability by propidium iodide exclusion (flow cytometer)", "assay_type": "cell-based", "conditions": "for viability (cell death): 22 hours, FIG. 12", "procedure": "BCR-ABL^+ FL5.12 cells were cultured in cytokine-free medium containing either 0.2 mM glucose (“low glucose”; -Glucose) or 10 mM glucose (“high glucose”, +Glucose) for 48 hours. The mean viability and standard deviation were determined by propidium iodide exclusion in a FACSAria flow cytometer (BD). Cells were washed three times in PBS and resuspended at a concentration of 2×10^5 per mL in media supplemented with 2 μg/mL of propidium iodide (Molecular Probes) prior to analysis. For the viability analysis of BCL-ABL^+ primary bone marrow cells, viability was measured after withdrawal from cytokines for five (5) days in high glucose or low glucose media. Methods used for culturing cells and measuring viability are described above and below.\nFatty acid oxidation inhibition via ST247, an inverse agonist that inhibits PPARδ activity, was examined. BCR-ABL-expressing FL5.12 cells were pretreated with vehicle control or 20 nM rapamycin overnight. Cells were cultured for 22 hours in complete medium lacking IL-3 and glucose, supplemented with the indicated treatments (vehicle, 0.5 μM ST247, 1 μM ST247, or 5 μM ST247). Viability was measured in three technical replicates by propidium iodide (PI) exclusion using a flow cytometer. […] The effect was dose dependent, with lesser concentrations resulting in little effect in rapamycin-treated cells.\nIn order to investigate the metabolic switch as glycolysis declines, BCR-ABL-expressing FL5.12 cells were pretreated with vehicle control or 20 nM rapamycin overnight. Cells were then cultured in complete medium lacking IL-3 with 100 μM glucose (a limiting concentration) for 46 hours, supplemented with either vehicle control or 5 μM ST247. Viability was measured in three technical replicates by PI exclusion in a flow cytometer.\nBCR-ABL-expressing FL5.12 cells were pretreated with vehicle control or 20 nM rapamycin overnight. Cells were then cultured in complete medium lacking IL-3 with 50 μM glucose for 48 hours, supplemented with the indicated treatments (vehicle, 1 μM GW6471, 10 μM GW7647, or 5 μM ST247). Viability was measured in three technical replicates by PI exclusion in a flow cytometer."}, "Akt": {"tested_on": "Akt", "test": "Akt phosphorylation immunoblot in BCR-ABL+ FL5.12 cells", "assay_type": "cell-based, murine", "conditions": "rebound after S6K1 knockdown; FIG. 5A", "procedure": "Although Akt activation has been previously associated with glucose-dependent survival (see FIG. 4A), rebound activation of Akt was tested for association with increased survival in BCR-ABL^+ cells cultured under low glucose conditions. […] Inactivation of mTORC1 and S6K1 can trigger increases in the activity of Akt and other upstream kinases, due to knockdown or loss of feedback regulation.\nRapamycin treatment can induce rebound Akt activation in short-term cultures, but long term treatment can suppress Akt activation by the upstream kinase mTORC2. See, e.g., Sarbassov, et al., (2006) Mol Cell 22:159-68."}, "BCR-ABL+ K562 cells [2]": {"tested_on": "BCR-ABL+ K562 cells", "test": "Viability by propidium iodide exclusion", "assay_type": "cell-based, human", "conditions": "full glucose; FIG. 10; not as strong as S6K1 knockdown with etomoxir"}, "BCR-ABL+ FL5.12 cells [3]": {"tested_on": "BCR-ABL+ FL5.12 cells", "test": "Fatty acid oxidation, 3H release from 3H-palmitate", "assay_type": "cell-based, murine", "conditions": "etomoxir, upon S6K1 inactivation; FIG. 7A", "procedure": "(§1) The rate of ^3H release from ^3H-palmitate was used to measure FAO. The ^3H-palmitate was adopted from Djouadi, et al., (2003) Mol Genet Metab 78:112-8. Between approximately 0.5×10^6 and approximately 1.0×10^6 cells were washed with PBS, then cultured with approximately 400 μL of (9,10-^3H) palmitate:albumin for approximately 4 hours at approximately 37 degrees C. After incubation, approximately 10% TCA was added to each tube and centrifuged at approximately 3300 rpm for approximately 10 min at approximately 4 degrees C. before being mixed with 6N NaOH and applied to ion-exchange columns. Each column was washed with approximately 1 mL of water and the eluates were counted using a scintillation counter."}, "BCR-ABL+ KBM7 cells": {"tested_on": "BCR-ABL+ KBM7 cells", "test": "Fatty acid oxidation, 3H release from 3H-palmitate", "assay_type": "cell-based, human", "conditions": "etomoxir and/or rapamycin; FIG. 7C", "procedure": "as §1"}, "BCR-ABL+ K562 cells [4]": {"tested_on": "BCR-ABL+ K562 cells", "test": "Fatty acid oxidation, 3H release from 3H-palmitate", "assay_type": "cell-based, human", "conditions": "etomoxir and/or rapamycin; FIG. 7B", "procedure": "as §1"}, "S6K1": {"tested_on": "S6K1", "test": "Ribosomal protein S6 phosphorylation as readout of S6K1 activity", "assay_type": "cell-based", "conditions": "imatinib 1.5 μM", "procedure": "In particular, vector control and BCR-ABL^+ cells were cultured for three (3) hours in the absence of growth factor, then restimulated for thirty (30) minutes for analysis of S6K1 phosphorylation at T389 and the phosphorylation of ribosomal protein S6 at serines 235/236.\nSmall ribosomal protein S6 (pS^6) phosphorylation was measured."}}, "note": "Entries after “also recorded” stand apart in the source; their conditions may differ."}
{"smiles": "NC(=O)c1ncn([C@@H]2O[C@H](CO)[C@@H](O)[C@H]2O)c1N", "note": "[AICAR, 5-aminoimidazole-4-carboxamide 1-β-D-ribofuranoside]", "values": [{"measurement": "glucose-independent survival", "setting": "BCR-ABL+ FL5.12 cells [1]; AICAR, low glucose, level similar to S6K1 knockdown, FIG. 8B", "result": "triggered glucose-independent survival"}]}
{"smiles": "Cn1c(=O)n(-c2ccc(C(C)(C)C#N)cc2)c2c3cc(-c4cnc5ccccc5c4)ccc3ncc21", "note": "[BEZ235]", "values": [{"measurement": "glucose-independent survival", "setting": "BCR-ABL+ FL5.12 cells [1]; S6K1 inactivation (knockdown) plus BEZ235, low glucose, FIG. 5B", "result": "did not prevent glucose-independent survival"}, {"measurement": "Akt activation (phosphorylation at serine 473)", "setting": "Akt", "result": "prevented the increase in Akt activation"}]}
{"smiles": "CCC(=O)NC[C@H](Cc1ccc(OCCc2nc(-c3ccccc3)oc2C)cc1)N/C(C)=C\\C(=O)c1ccc(C(F)(F)F)cc1", "note": "[GW6471, N-((2S)-2-(((1Z)-1-Methyl-3-oxo-3-(4-(trifluoromethyl)phenyl)prop-1-enyl)amino)-3-(4-(2-(5-methyl-2-phenyl-1,3-oxazol-4-yl)ethoxy)phenyl)propyl)propanamide]", "values": [{"measurement": "viability (restoring apoptosis)", "setting": "BCR-ABL+ FL5.12 cells [1]; 1 μM GW6471, 20 nM rapamycin pretreated, 50 μM glucose, 48 hours, FIG. 14", "result": "somewhat effective in restoring apoptosis"}]}
{"smiles": "CC(C)(Sc1ccc(CCN(CCCCC2CCCCC2)C(=O)NC2CCCCC2)cc1)C(=O)O", "note": "[GW7647]", "values": [{"measurement": "viability", "setting": "BCR-ABL+ FL5.12 cells [1]; 10 μM GW7647, vehicle-control treated cells, 50 μM glucose, 48 hours, FIG. 14", "result": "undesired increase in viability"}]}
{"smiles": "CCCCCCNc1ccc(NS(=O)(=O)c2ccsc2C(=O)OC)c(OC)c1", "note": "[ST247]", "values": [{"measurement": "viability (cell death)", "setting": "BCR-ABL+ FL5.12 cells [1]; 5 μM ST247, 20 nM rapamycin pretreated overnight, no IL-3, no glucose", "result": "triggered substantial cell death"}, {"measurement": "viability (restoring apoptosis)", "setting": "BCR-ABL+ FL5.12 cells [1]; 5 μM ST247, 20 nM rapamycin pretreated, 50 μM glucose, 48 hours, FIG. 14", "result": "restoring apoptosis"}, {"measurement": "viability (survival advantage)", "setting": "BCR-ABL+ FL5.12 cells [1]; 5 μM ST247, 20 nM rapamycin pretreated, 100 μM glucose, 46 hours, FIG. 13", "result": "counteracted the survival advantage induced by rapamycin"}, {"measurement": "viability (cell death)", "setting": "BCR-ABL+ FL5.12 cells [1]; lesser concentrations of ST247 (0.5 μM, 1 μM), rapamycin-treated, no glucose", "result": "little effect"}]}
{"smiles": "CCOC(=O)[C@@]1(CCCCCCOc2ccc(Cl)cc2)CO1", "note": "[etomoxir]", "values": [{"measurement": "cytotoxicity of etomoxir in the presence of rapamycin", "setting": "BCR-ABL+ K562 cells [2]", "result": "enhanced cytotoxicity"}, {"measurement": "apoptosis, combination with S6K1 knockdown", "setting": "BCR-ABL+ FL5.12 cells [1]; 200 μM etomoxir plus S6K1 knockdown, full glucose, approximately 48 hours, FIG. 9A", "result": "induced significant apoptosis"}, {"measurement": "cytotoxicity as a single agent", "setting": "BCR-ABL+ FL5.12 cells [1]; 200 μM etomoxir, full glucose, approximately 48 hours, FIG. 9A", "result": "mild cytotoxic effect"}, {"measurement": "cell death in response to etomoxir, dose curve with S6K1 knockdown", "setting": "BCR-ABL+ FL5.12 cells [1]; etomoxir about 200 μM to about 300 μM, full glucose, FIG. 9B", "result": "enhanced cell death"}, {"measurement": "cell survival mediated by AICAR", "setting": "BCR-ABL+ FL5.12 cells [1]; low glucose, etomoxir added, FIG. 8B", "result": "prevented cell survival"}, {"measurement": "survival of S6K1 knockdown cells", "setting": "BCR-ABL+ FL5.12 cells [1]; low glucose, presence of etomoxir, FIG. 8A, 8B", "result": "prevented the survival; also recorded: prevented cell survival"}, {"measurement": "3H release from 3H-palmitate (FAO)", "setting": "BCR-ABL+ FL5.12 cells [3]", "result": "reduced ^3H release"}, {"measurement": "3H release from 3H-palmitate (FAO)", "setting": "BCR-ABL+ KBM7 cells", "result": "reduced ^3H release"}, {"measurement": "3H release from 3H-palmitate (FAO)", "setting": "BCR-ABL+ K562 cells [4]", "result": "reduced ^3H release"}]}
{"smiles": "Cc1ccc(NC(=O)c2ccc(CN3CCN(C)CC3)cc2)cc1Nc1nccc(-c2cccnc2)n1", "note": "[imatinib]", "values": [{"measurement": "S6K1 activity (phosphorylation of pS6)", "setting": "S6K1", "result": "reduced S6K1 activity"}]}
